Read-outs that look alike come from different tables or passages of the source.
System: PSMA + PC-3 PiP and PSMA − PC-3 flu tumor xenografts
Details: for Biodistribution: PC-3 PiP: PSMA+ tumor xenograft; for Biodistribution: PC-3 flu: PSMA− tumor xenograft
[1] = 21 H post-injection, comparative Table 13

N=C(N)NCc1ccc(C(=O)NCCCCC(NC(=O)CCCCCCC(=O)NCCCC[C@H](NC(=O)N[C@@H](CCC(=O)O)C(=O)O)C(=O)O)C(=O)O)cc1[131I] (stereo partly shown) [[^131I] labeled PSMA-904]
Biodistribution: Lrg Int. (1 H post-injection): 0.50 ± 0.65 % ID/g | Biodistribution: Sm int. (1 H post-injection): 33.81 ± 6.36 % ID/g | Biodistribution: bladder (1 H post-injection): 0.71 ± 0.23 % ID/g | Biodistribution: blood (1 H post-injection): 0.46 ± 0.17 % ID/g | Biodistribution: heart (1 H post-injection): 0.46 ± 0.18 % ID/g | Biodistribution: kidney (1 H post-injection): 121 ± 23.8 % ID/g | Biodistribution: liver (1 H post-injection): 5.16 ± 3.81 % ID/g | Biodistribution: lung (1 H post-injection): 1.39 ± 0.36 % ID/g | Biodistribution: muscle (1 H post-injection): 0.31 ± 0.14 % ID/g | Biodistribution: spleen (1 H post-injection): 9.83 ± 3.28 % ID/g | Biodistribution: stomach (1 H post-injection): 0.73 ± 0.26 % ID/g | Biodistribution: thyroid (1 H post-injection): 0.11 ± 0.13 % ID/g | Biodistribution: Lrg Int. (2 H post-injection): 21.3 ± 15.9 % ID/g | Biodistribution: Sm int. (2 H post-injection): 14.2 ± 12.0 % ID/g | Biodistribution: bladder (2 H post-injection): 0.64 ± 0.25 % ID/g | Biodistribution: blood (2 H post-injection): 0.18 ± 0.07 % ID/g | Biodistribution: heart (2 H post-injection): 0.27 ± 0.14 % ID/g | Biodistribution: kidney (2 H post-injection): 110 ± 37.2 % ID/g | Biodistribution: liver (2 H post-injection): 3.48 ± 2.35 % ID/g | Biodistribution: lung (2 H post-injection): 0.81 ± 0.37 % ID/g | Biodistribution: muscle (2 H post-injection): 0.13 ± 0.03 % ID/g | Biodistribution: spleen (2 H post-injection): 3.41 ± 2.01 % ID/g | Biodistribution: stomach (2 H post-injection): 1.03 ± 0.62 % ID/g | Biodistribution: thyroid (2 H post-injection): 0.31 ± 0.23 % ID/g | Biodistribution: Lrg Int. (21 H post-injection): 14.5 ± 8.08 % ID/g | Biodistribution: Sm int. (21 H post-injection): 0.87 ± 0.92 % ID/g | Biodistribution: bladder (21 H post-injection): 0.07 ± 0.09 % ID/g | Biodistribution: blood (21 H post-injection): 0.02 ± 0.01 % ID/g | Biodistribution: heart (21 H post-injection): 0.02 ± 0.01 % ID/g | Biodistribution: kidney (21 H post-injection): 3.03 ± 2.96 % ID/g | Biodistribution: liver (21 H post-injection): 0.24 ± 0.39 % ID/g | Biodistribution: lung (21 H post-injection): 0.03 ± 0.01 % ID/g | Biodistribution: muscle (21 H post-injection): 0.03 ± 0.02 % ID/g | Biodistribution: spleen (21 H post-injection): 0.16 ± 0.07 % ID/g | Biodistribution: stomach (21 H post-injection): 1.98 ± 3.10 % ID/g | Biodistribution: thyroid (21 H post-injection): 0.42 ± 0.35 % ID/g | Biodistribution: PC-3 PiP (1 H post-injection): 27.6 ± 7.59 % ID/g | Biodistribution: PC-3 PiP (2 H post-injection): 24.7 ± 9.77 % ID/g | Biodistribution: PC-3 PiP (21 H post-injection): 19.2 ± 7.28 % ID/g | Biodistribution: PC-3 flu (1 H post-injection): 0.49 ± 0.23 % ID/g | Biodistribution: PC-3 flu (2 H post-injection): 0.22 ± 0.06 % ID/g | Biodistribution: PC-3 flu (21 H post-injection): 0.02 ± 0.01 % ID/g

O=C(O)CC[C@H](NC(=O)N[C@@H](CCC(=O)NCCc1ccc([131I])cc1)C(=O)O)C(=O)O [[^131I]HS-549]
Biodistribution: Lrg Int. (1 H post-injection): 0.52 ± 0.12 % ID/g | Biodistribution: Sm int. (1 H post-injection): 1.98 ± 0.30 % ID/g | Biodistribution: bladder (1 H post-injection): 4.34 ± 2.16 % ID/g | Biodistribution: blood (1 H post-injection): 5.90 ± 1.05 % ID/g | Biodistribution: heart (1 H post-injection): 2.30 ± 0.63 % ID/g | Biodistribution: kidney (1 H post-injection): 106 ± 18.9 % ID/g | Biodistribution: liver (1 H post-injection): 21.2 ± 4.14 % ID/g | Biodistribution: lung (1 H post-injection): 4.60 ± 1.09 % ID/g | Biodistribution: muscle (1 H post-injection): 0.86 ± 0.26 % ID/g | Biodistribution: spleen (1 H post-injection): 6.76 ± 3.42 % ID/g | Biodistribution: stomach (1 H post-injection): 0.92 ± 0.20 % ID/g | Biodistribution: thyroid (1 H post-injection): 1.17 ± 0.43 % ID/g | Biodistribution: Lrg Int. (2 H post-injection): 1.32 ± 0.25 % ID/g | Biodistribution: Sm int. (2 H post-injection): 2.42 ± 0.40 % ID/g | Biodistribution: bladder (2 H post-injection): 2.34 ± 1.04 % ID/g | Biodistribution: blood (2 H post-injection): 2.92 ± 0.32 % ID/g | Biodistribution: heart (2 H post-injection): 1.14 ± 0.18 % ID/g | Biodistribution: kidney (2 H post-injection): 96.6 ± 39.1 % ID/g | Biodistribution: liver (2 H post-injection): 26.0 ± 3.09 % ID/g | Biodistribution: lung (2 H post-injection): 2.73 ± 0.66 % ID/g | Biodistribution: muscle (2 H post-injection): 0.46 ± 0.12 % ID/g | Biodistribution: spleen (2 H post-injection): 2.71 ± 0.85 % ID/g | Biodistribution: stomach (2 H post-injection): 0.47 ± 0.17 % ID/g | Biodistribution: thyroid (2 H post-injection): 0.69 ± 0.29 % ID/g | tumor/kidney ratio (2 H post-injection): 0.8 | Biodistribution: Lrg Int. (21 H post-injection): 0.63 ± 0.39 % ID/g | Biodistribution: Sm int. (21 H post-injection): 0.37 ± 0.06 % ID/g | Biodistribution: bladder (21 H post-injection): 0.65 ± 0.20 % ID/g | Biodistribution: blood (21 H post-injection): 1.39 ± 0.35 % ID/g | Biodistribution: heart (21 H post-injection): 0.41 ± 0.09 % ID/g | Biodistribution: kidney (21 H post-injection): 3.13 ± 1.65 % ID/g | Biodistribution: liver (21 H post-injection): 1.86 ± 0.51 % ID/g | Biodistribution: lung (21 H post-injection): 0.87 ± 0.27 % ID/g | Biodistribution: muscle (21 H post-injection): 0.16 ± 0.04 % ID/g | Biodistribution: spleen (21 H post-injection): 0.29 ± 0.12 % ID/g | Biodistribution: stomach (21 H post-injection): 0.14 ± 0.04 % ID/g | Biodistribution: thyroid (21 H post-injection): 0.36 ± 0.05 % ID/g | tumor/kidney ratio (21 H post-injection): 7.2 | Non-target organ uptake: spleen [1]: 0.3 % D/g | Non-target organ uptake: stomach [1]: 0.14 % D/g | Non-target organ uptake: thyroid [1]: 0.36 % D/g | Biodistribution: PC-3 PiP (1 H post-injection): 78.1 ± 19.1 % ID/g | Biodistribution: PC-3 PiP (2 H post-injection): 74.7 ± 13.1 % ID/g | Biodistribution: PC-3 PiP (21 H post-injection): 22.6 ± 22.1 % ID/g | Biodistribution: PC-3 flu (1 H post-injection): 2.21 ± 0.53 % ID/g | Biodistribution: PC-3 flu (2 H post-injection): 1.51 ± 0.30 % ID/g | Biodistribution: PC-3 flu (21 H post-injection): 0.44 ± 0.18 % ID/g | PSMA positive tumor uptake (in words) (biodistributions of Tables 2, 3, 9, 10): demonstrated PSMA positive tumor uptake | Clearance from the kidneys (in words) (compared with [^131I]YC-I-27 and [^211At]YC-I-27): clear from the kidneys giving higher tumor to kidney ratios

— US20200231614A1, “PSMA TARGETED RADIOHALOGENATED UREAS FOR CANCER RADIOTHERAPY” (THE JOHNS HOPKINS UNIVERSITY, priority 2015, published 2020)
